Test results: ChEMBL document CHEMBL5634112, “Synthesis and biological evaluation of fluoroquinolones containing a pyridoxine derivatives moiety” (Eur J Med Chem, 2023)
In brackets after ≈: the same amount, converted by molar mass.

Assays:
[1] = tested on: Staphylococcus haemolyticus; assay: Antibacterial activity against clinical isolate Staphylococcus haemolyticus NKC 31/2 assessed as reduction in microbial growth incubated for 24 hrs by broth microdilution method; format: functional
[2] = Cytotoxicity against human HSF assessed as reduction in cell viability incubated for 72 hrs by MTT assay; format: toxicity, cell-based; conditions: HSF cells
Pseudomonas aeruginosa [3] = assay: Antibacterial activity against Pseudomonas aeruginosa ATCC 27853 assessed as reduction in microbial growth incubated for 24 hrs by broth microdilution method; format: functional
Bacillus subtilis = assay: Antibacterial activity against Bacillus subtilis 168 assessed as reduction in microbial growth incubated for 24 hrs by broth microdilution method; format: functional
[4] = tested on: Staphylococcus auricularis; assay: Antibacterial activity against clinical isolate Staphylococcus auricularis NKC 7 assessed as reduction in microbial growth incubated for 24 hrs by broth microdilution method; format: functional
Escherichia coli [5] = assay: Antibacterial activity against clinical isolate Escherichia coli NKC 1 assessed as reduction in microbial growth incubated for 24 hrs by broth microdilution method; format: functional
[6] = Cytotoxicity against human MSC assessed as reduction in cell viability incubated for 72 hrs by MTT assay; format: toxicity, cell-based; conditions: MSC cells
Escherichia coli [7] = assay: Antibacterial activity against Escherichia coli ATCC 25922 assessed as reduction in microbial growth incubated for 24 hrs by broth microdilution method; format: functional
Klebsiella pneumoniae = assay: Antibacterial activity against clinical isolate Klebsiella pneumoniae 1678 assessed as reduction in microbial growth incubated for 24 hrs by broth microdilution method; format: functional
Staphylococcus aureus [8] = assay: Antibacterial activity against clinical isolate methicillin resistant Staphylococcus aureus 4771 assessed as reduction in microbial growth incubated for 24 hrs by broth microdilution method; format: functional
[9] = Cytotoxicity against human CHL assessed as reduction in cell viability incubated for 72 hrs by MTT assay; format: toxicity, cell-based; conditions: CHL cells
[10] = tested on: Staphylococcus epidermidis; assay: Antibacterial activity against clinical isolate Staphylococcus epidermidis NKC 37/1 assessed as reduction in microbial growth incubated for 24 hrs by broth microdilution method; format: functional
Micrococcus luteus = assay: Antibacterial activity against clinical isolate Micrococcus luteus assessed as reduction in microbial growth incubated for 24 hrs by broth microdilution method; format: functional
[11] = tested on: Staphylococcus epidermidis; assay: Antibacterial activity against clinical isolate Staphylococcus epidermidis assessed as reduction in microbial growth incubated for 24 hrs by broth microdilution method; format: functional
Pseudomonas aeruginosa [12] = assay: Antibacterial activity against clinical isolate Pseudomonas aeruginosa NKC 17 assessed as reduction in microbial growth incubated for 24 hrs by broth microdilution method; format: functional
Staphylococcus aureus [13] = assay: Antibacterial activity against methicillin sensitive Staphylococcus aureus ATCC 29213 assessed as reduction in microbial growth incubated for 24 hrs by broth microdilution method; format: functional
Klebsiella aerogenes = assay: Antibacterial activity against clinical isolate Enterobacter aerogenes NKC 8 assessed as reduction in microbial growth incubated for 24 hrs by broth microdilution method; format: functional
Cedecea davisae = assay: Antibacterial activity against clinical isolate Cedecea davisae 1813 assessed as reduction in microbial growth incubated for 24 hrs by broth microdilution method; format: functional
Staphylococcus aureus [14] = assay: Antibacterial activity against clinical isolate Staphylococcus aureus 4721 assessed as reduction in microbial growth incubated for 24 hrs by broth microdilution method; format: functional
Enterococcus faecalis = assay: Antibacterial activity against clinical isolate Enterococcus faecalis 1465 assessed as reduction in microbial growth incubated for 24 hrs by broth microdilution method; format: functional
Staphylococcus aureus [15] = assay: Antibacterial activity against clinical isolate Staphylococcus aureus 1812 assessed as reduction in microbial growth incubated for 24 hrs by broth microdilution method; format: functional
[16] = tested on: Staphylococcus haemolyticus; assay: Antibacterial activity against clinical isolate Staphylococcus haemolyticus 1464 assessed as reduction in microbial growth incubated for 24 hrs by broth microdilution method; format: functional
Salmonella typhimurium = assay: Antibacterial activity against Salmonella typhimurium TA100 assessed as reduction in microbial growth incubated for 24 hrs by broth microdilution method; format: functional, Salmonella enterica subsp. enterica serovar Typhimurium; conditions: Salmonella enterica

| SMILES | MIC [1] | CC50 at 72 h [2] | MIC (Pseudomonas aeruginosa [3]) | MIC (Bacillus subtilis) | MIC [4] | MIC (Escherichia coli [5]) | CC50 at 72 h [6] | MIC (Escherichia coli [7]) | MIC (Klebsiella pneumoniae) | MIC (Staphylococcus aureus [8]) | CC50 at 72 h [9] | MIC [10] | MIC (Micrococcus luteus) | MIC [11] | MIC (Pseudomonas aeruginosa [12]) | MIC (Staphylococcus aureus [13]) | MIC (Klebsiella aerogenes) | MIC (Cedecea davisae) | MIC (Staphylococcus aureus [14]) | MIC (Enterococcus faecalis) | other results |
| --- | --- | --- | --- | --- | --- | --- | --- | --- | --- | --- | --- | --- | --- | --- | --- | --- | --- | --- | --- | --- | --- |
| COc1c(N2C[C@@H]3CCCN(Cc4c(CO)nc(C)c(O)c4CO)[C@@H]3C2)c(F)cc2c(=O)c(C(=O)O)cn(C3CC3)c12.Cl | 8 µg/mL | 35.2 µg/mL | > 64 µg/mL | 2 µg/mL | 0.06 µg/mL | 4 µg/mL | 20.6 µg/mL | 2 µg/mL | 64 µg/mL | 8 µg/mL | 17.6 µg/mL | 0.25 µg/mL | 2 µg/mL | 2 µg/mL | 32 µg/mL | 2 µg/mL | 8 µg/mL | 0.5 µg/mL | 0.25 µg/mL | 4 µg/mL | MIC (Staphylococcus aureus [15]): 0.5 µg/mL; MIC [16]: 0.25 µg/mL; MIC (Salmonella typhimurium): 2 µg/mL |
| COc1c(N2C[C@@H]3CCCN(Cc4cnc(C)c5c4COC(C)(C)O5)[C@@H]3C2)c(F)cc2c(=O)c(C(=O)O)cn(C3CC3)c12 | 32 µg/mL | 3.44 µg/mL (≈ 5.8 µM) | > 64 µg/mL | 2 µg/mL | 0.03 µg/mL | 4 µg/mL | 3.84 µg/mL (≈ 6.48 µM) | > 64 µg/mL | 32 µg/mL | 4 µg/mL | 2.85 µg/mL (≈ 4.81 µM) | 1 µg/mL | 4 µg/mL | 2 µg/mL | > 64 µg/mL | 2 µg/mL | 64 µg/mL | 0.5 µg/mL | 0.5 µg/mL | 32 µg/mL | MIC (Staphylococcus aureus [15]): 1 µg/mL; MIC [16]: 0.5 µg/mL; MIC (Salmonella typhimurium): 4 µg/mL |
| CCn1cc(C(=O)O)c(=O)c2cc(F)c(N3CCN(Cc4nc(C)c5c(c4CO)COC(C)(C)O5)CC3)cc21 | 32 µg/mL | 24.9 µg/mL (≈ 46 µM) | > 64 µg/mL | 2 µg/mL | 0.25 µg/mL | 16 µg/mL | 16.2 µg/mL (≈ 30 µM) | > 64 µg/mL | > 64 µg/mL | 4 µg/mL | 7.05 µg/mL (≈ 13 µM) | 4 µg/mL | 4 µg/mL | 8 µg/mL | 64 µg/mL | 2 µg/mL | 32 µg/mL | 2 µg/mL | 4 µg/mL | > 64 µg/mL | MIC (Staphylococcus aureus [15]): 8 µg/mL; MIC [16]: 4 µg/mL; MIC (Salmonella typhimurium): 2 µg/mL |
| Cc1ncc(CN2CCN(c3cc4c(cc3F)c(=O)c(C(=O)O)cn4C3CC3)CC2)c(C)c1O.Cl | 16 µg/mL | 27.6 µg/mL | 32 µg/mL | 0.5 µg/mL | 0.06 µg/mL | 0.13 µg/mL | 25.1 µg/mL | 1 µg/mL | 16 µg/mL | 0.5 µg/mL | 14.2 µg/mL | 0.5 µg/mL | 0.5 µg/mL | 0.5 µg/mL | 16 µg/mL | 0.5 µg/mL | 1 µg/mL | 0.5 µg/mL | 0.5 µg/mL | 16 µg/mL | MIC (Staphylococcus aureus [15]): 1 µg/mL; MIC [16]: 0.5 µg/mL; MIC (Salmonella typhimurium): 1 µg/mL |
| CCCC1OCc2c(CN3CCC[C@H]4CN(c5c(F)cc6c(=O)c(C(=O)O)cn(C7CC7)c6c5OC)C[C@H]43)cnc(C)c2O1 (stereo partly specified) | 64 µg/mL | 2.34 µg/mL (≈ 3.86 µM) | > 64 µg/mL | 2 µg/mL | 0.13 µg/mL | 4 µg/mL | 2.91 µg/mL (≈ 4.8 µM) | > 64 µg/mL | > 64 µg/mL | 4 µg/mL | 2.46 µg/mL (≈ 4.05 µM) | 4 µg/mL | 2 µg/mL | 2 µg/mL | > 64 µg/mL | 2 µg/mL | 64 µg/mL | 2 µg/mL | 2 µg/mL | 64 µg/mL | MIC (Staphylococcus aureus [15]): 4 µg/mL; MIC [16]: 2 µg/mL; MIC (Salmonella typhimurium): 4 µg/mL |
| CCn1cc(C(=O)O)c(=O)c2cc(F)c(N3CCN(Cc4cnc(C)c(O)c4CO)C(C)C3)c(F)c21.Cl (stereo unspecified) | 16 µg/mL | 22.3 µg/mL | 4 µg/mL | 0.5 µg/mL | 0.13 µg/mL | 2 µg/mL | 13.1 µg/mL | 8 µg/mL | > 64 µg/mL | 1 µg/mL | 7.85 µg/mL | 1 µg/mL | 0.5 µg/mL | 1 µg/mL | > 64 µg/mL | 2 µg/mL | 8 µg/mL | 2 µg/mL | 1 µg/mL | 8 µg/mL | MIC (Staphylococcus aureus [15]): 1 µg/mL; MIC [16]: 1 µg/mL; MIC (Salmonella typhimurium): 2 µg/mL |
| Cc1ncc(CN2CCN(c3cc4c(cc3F)c(=O)c(C(=O)O)cn4C3CC3)CC2)c2c1OCOC2.Cl | 8 µg/mL | 40.3 µg/mL | 32 µg/mL | 2 µg/mL | 0.03 µg/mL | 2 µg/mL | 69.5 µg/mL | 8 µg/mL | 16 µg/mL | 2 µg/mL | 14.9 µg/mL | 0.25 µg/mL | 16 µg/mL | 0.5 µg/mL | 32 µg/mL | 1 µg/mL | 16 µg/mL | 0.03 µg/mL | 0.13 µg/mL | 8 µg/mL | MIC (Staphylococcus aureus [15]): 0.25 µg/mL; MIC [16]: 0.13 µg/mL; MIC (Salmonella typhimurium): 0.5 µg/mL |
